Experimental data published in ChEMBL document CHEMBL1671742, “Overexpression of the adeB gene in clinical isolates of tigecycline-nonsusceptible Acinetobacter baumannii without insertion mutations in adeRS” (Antimicrob Agents Chemother, 2010).
In brackets after ≈: the same amount, converted by molar mass.

What was measured:
Acinetobacter baumannii [1] = assay: Antibacterial activity against intI1-positive tigecycline-resistant Acinetobacter baumannii AB118 with PFGE subgroup B2 containing carbapenemase OXA-23 and OXA-51 by Etest; assay type: functional
Acinetobacter baumannii [2] = assay: Antibacterial activity against intI1-positive tigecycline-resistant Acinetobacter baumannii AB113 with PFGE subgroup B1 containing carbapenemase OXA-23 and OXA-51 by Etest; assay type: functional
Acinetobacter baumannii [3] = assay: Antibacterial activity against intI1-positive tigecycline-resistant Acinetobacter baumannii AB097 with PFGE subgroup B1 containing carbapenemase OXA-23 and OXA-51 by Etest; assay type: functional
Acinetobacter baumannii [4] = assay: Antibacterial activity against intI1-positive tigecycline-resistant Acinetobacter baumannii AB134 with PFGE subgroup A2 containing carbapenemase OXA-23 and OXA-51 by Etest; assay type: functional
Acinetobacter baumannii [5] = assay: Antibacterial activity against intI1-positive tigecycline-resistant Acinetobacter baumannii AB173 with PFGE subgroup B1 containing carbapenemase OXA-23 and OXA-51 by Etest; assay type: functional
Acinetobacter baumannii [6] = assay: Antibacterial activity against intI1-positive tigecycline-susceptible Acinetobacter baumannii AB018 with PFGE subgroup G containing carbapenemase OXA-58 and OXA-51 by Etest; assay type: functional
Acinetobacter baumannii [7] = assay: Antibacterial activity against intI1-positive tigecycline-intermediate Acinetobacter baumannii AB127 with PFGE subgroup I containing carbapenemase OXA-23 and OXA-51 by Etest; assay type: functional
Acinetobacter baumannii [8] = assay: Antibacterial activity against intI1-negative tigecycline-intermediate Acinetobacter baumannii AB098 with PFGE subgroup F containing carbapenemase OXA-23 and OXA-51 by Etest; assay type: functional
Acinetobacter baumannii [9] = assay: Antibacterial activity against intI1-positive tigecycline-intermediate Acinetobacter baumannii AB166 with PFGE subgroup A3 containing carbapenemase OXA-51 by Etest; assay type: functional
Acinetobacter baumannii [10] = assay: Antibacterial activity against intI1-positive tigecycline-susceptible Acinetobacter baumannii AB039 with PFGE subgroup B1 containing carbapenemase OXA-23 and OXA-51 by Etest; assay type: functional
Acinetobacter baumannii [11] = assay: Antibacterial activity against intI1-positive tigecycline-resistant Acinetobacter baumannii AB106 with PFGE subgroup B1 containing carbapenemase OXA-23 and OXA-51 by Etest; assay type: functional
Acinetobacter baumannii [12] = assay: Antibacterial activity against intI1-positive tigecycline-resistant Acinetobacter baumannii AB125 with PFGE subgroup A1 containing carbapenemase OXA-23 and OXA-51 by Etest; assay type: functional
Acinetobacter baumannii [13] = assay: Antibacterial activity against intI1-positive tigecycline-resistant Acinetobacter baumannii AB168 with PFGE subgroup A1 containing carbapenemase OXA-23 and OXA-51 by Etest; assay type: functional
Acinetobacter baumannii [14] = assay: Antibacterial activity against intI1-positive tigecycline-resistant Acinetobacter baumannii AB096 with PFGE subgroup B1 containing carbapenemase OXA-23 and OXA-51 by Etest; assay type: functional
Acinetobacter baumannii [15] = assay: Antibacterial activity against intI1-positive tigecycline-intermediate Acinetobacter baumannii AB099 with PFGE subgroup H containing carbapenemase OXA-23 and OXA-51 by Etest; assay type: functional
Acinetobacter baumannii [16] = assay: Antibacterial activity against intI1-positive tigecycline-susceptible Acinetobacter baumannii AB110 with PFGE subgroup C containing carbapenemase OXA-51 by Etest; assay type: functional
Acinetobacter baumannii [17] = assay: Antibacterial activity against intI1-positive tigecycline-susceptible Acinetobacter baumannii AB095 with PFGE subgroup E containing carbapenemase OXA-23 and OXA-51 by Etest; assay type: functional
Acinetobacter baumannii [18] = assay: Antibacterial activity against Multidrug-resistant Acinetobacter baumannii by broth microdilution method; assay type: functional
Acinetobacter baumannii [19] = assay: Antibacterial activity against intI1-positive tigecycline-intermediate Acinetobacter baumannii AB166 with PFGE subgroup A3 containing carbapenemase OXA-51 by Etest in presence of 64 mg/liter 1-(1-naphthylmethyl)-piperazine; assay type: functional
Acinetobacter baumannii [20] = assay: Antibacterial activity against intI1-positive tigecycline-susceptible Acinetobacter baumannii AB018 with PFGE subgroup G containing carbapenemase OXA-58 and OXA-51 by Etest in presence of 64 mg/liter 1-(1-naphthylmethyl)-piperazine; assay type: functional
Acinetobacter baumannii [21] = assay: Antibacterial activity against intI1-positive tigecycline-resistant Acinetobacter baumannii AB134 with PFGE subgroup A2 containing carbapenemase OXA-23 and OXA-51 by Etest in presence of 64 mg/liter 1-(1-naphthylmethyl)-piperazine; assay type: functional
Acinetobacter baumannii [22] = assay: Antibacterial activity against intI1-positive tigecycline-resistant Acinetobacter baumannii AB113 with PFGE subgroup B1 containing carbapenemase OXA-23 and OXA-51 by Etest in presence of 64 mg/liter 1-(1-naphthylmethyl)-piperazine; assay type: functional
Acinetobacter baumannii [23] = assay: Antibacterial activity against intI1-positive tigecycline-intermediate Acinetobacter baumannii AB099 with PFGE subgroup H containing carbapenemase OXA-23 and OXA-51 by Etest in presence of 64 mg/liter 1-(1-naphthylmethyl)-piperazine; assay type: functional
Acinetobacter baumannii [24] = assay: Antibacterial activity against intI1-positive tigecycline-resistant Acinetobacter baumannii AB106 with PFGE subgroup B1 containing carbapenemase OXA-23 and OXA-51 by Etest in presence of 64 mg/liter 1-(1-naphthylmethyl)-piperazine; assay type: functional
Acinetobacter baumannii [25] = assay: Antibacterial activity against intI1-positive tigecycline-resistant Acinetobacter baumannii AB096 with PFGE subgroup B1 containing carbapenemase OXA-23 and OXA-51 by Etest in presence of 64 mg/liter 1-(1-naphthylmethyl)-piperazine; assay type: functional
Acinetobacter baumannii [26] = assay: Antibacterial activity against intI1-negative tigecycline-intermediate Acinetobacter baumannii AB098 with PFGE subgroup F containing carbapenemase OXA-23 and OXA-51 by Etest in presence of 64 mg/liter 1-(1-naphthylmethyl)-piperazine; assay type: functional
Acinetobacter baumannii [27] = assay: Antibacterial activity against intI1-positive tigecycline-resistant Acinetobacter baumannii AB168 with PFGE subgroup A1 containing carbapenemase OXA-23 and OXA-51 by Etest in presence of 64 mg/liter 1-(1-naphthylmethyl)-piperazine; assay type: functional
Serum = assay: Steady state drug concentration in human serum; assay type: ADME, cell-free
Acinetobacter baumannii [28] = assay: Antibacterial activity against intI1-positive tigecycline-susceptible Acinetobacter baumannii AB095 with PFGE subgroup E containing carbapenemase OXA-23 and OXA-51 by Etest in presence of 64 mg/liter 1-(1-naphthylmethyl)-piperazine; assay type: functional
Acinetobacter baumannii [29] = assay: Antibacterial activity against intI1-positive tigecycline-resistant Acinetobacter baumannii AB125 with PFGE subgroup A1 containing carbapenemase OXA-23 and OXA-51 by Etest in presence of 64 mg/liter 1-(1-naphthylmethyl)-piperazine; assay type: functional
Acinetobacter baumannii [30] = assay: Antibacterial activity against intI1-positive tigecycline-resistant Acinetobacter baumannii AB173 with PFGE subgroup B1 containing carbapenemase OXA-23 and OXA-51 by Etest in presence of 64 mg/liter 1-(1-naphthylmethyl)-piperazine; assay type: functional
Acinetobacter baumannii [31] = assay: Antibacterial activity against intI1-positive tigecycline-intermediate Acinetobacter baumannii AB127 with PFGE subgroup I containing carbapenemase OXA-23 and OXA-51 by Etest in presence of 64 mg/liter 1-(1-naphthylmethyl)-piperazine; assay type: functional
Acinetobacter baumannii [32] = assay: Antibacterial activity against intI1-positive tigecycline-resistant Acinetobacter baumannii AB097 with PFGE subgroup B1 containing carbapenemase OXA-23 and OXA-51 by Etest in presence of 64 mg/liter 1-(1-naphthylmethyl)-piperazine; assay type: functional
Acinetobacter baumannii [33] = assay: Antibacterial activity against intI1-positive tigecycline-susceptible Acinetobacter baumannii AB039 with PFGE subgroup B1 containing carbapenemase OXA-23 and OXA-51 by Etest in presence of 64 mg/liter 1-(1-naphthylmethyl)-piperazine; assay type: functional
Acinetobacter baumannii [34] = assay: Antibacterial activity against intI1-positive tigecycline-susceptible Acinetobacter baumannii AB110 with PFGE subgroup C containing carbapenemase OXA-51 by Etest in presence of 64 mg/liter 1-(1-naphthylmethyl)-piperazine; assay type: functional
Acinetobacter baumannii [35] = assay: Antibacterial activity against intI1-positive tigecycline-resistant Acinetobacter baumannii AB118 with PFGE subgroup B2 containing carbapenemase OXA-23 and OXA-51 by Etest in presence of 64 mg/liter 1-(1-naphthylmethyl)-piperazine; assay type: functional
Acinetobacter baumannii [36] = assay: Antibacterial activity against Multidrug-resistant Acinetobacter baumannii clinical isolate by broth microdilution method; assay type: functional

CCN1CCN(C(=O)N[C@@H](C(=O)N[C@@H]2C(=O)N3[C@@H]2SC(C)(C)[C@@H]3C(=O)O)c2ccccc2)C(=O)C1=O [PIPERACILLIN]
MIC (Acinetobacter baumannii [1]): > 128 µg/mL | MIC (Acinetobacter baumannii [2]): > 128 µg/mL | MIC (Acinetobacter baumannii [3]): > 128 µg/mL | MIC (Acinetobacter baumannii [4]): > 128 µg/mL | MIC (Acinetobacter baumannii [5]): > 128 µg/mL | MIC (Acinetobacter baumannii [6]): > 128 µg/mL | MIC (Acinetobacter baumannii [7]): > 128 µg/mL | MIC (Acinetobacter baumannii [8]): > 128 µg/mL | MIC (Acinetobacter baumannii [9]): > 128 µg/mL | MIC (Acinetobacter baumannii [10]): > 128 µg/mL | MIC (Acinetobacter baumannii [11]): > 128 µg/mL | MIC (Acinetobacter baumannii [12]): > 128 µg/mL | MIC (Acinetobacter baumannii [13]): > 128 µg/mL | MIC (Acinetobacter baumannii [14]): > 128 µg/mL | MIC (Acinetobacter baumannii [15]): > 128 µg/mL | MIC (Acinetobacter baumannii [16]): > 128 µg/mL | MIC (Acinetobacter baumannii [17]): > 128 µg/mL

C[C@]1(Cn2ccnn2)[C@H](C(=O)O)N2C(=O)C[C@H]2S1(=O)=O [TAZOBACTAM]
MIC (Acinetobacter baumannii [1]): 4 µg/mL (≈ 13.3 µM) | MIC (Acinetobacter baumannii [2]): 4 µg/mL (≈ 13.3 µM) | MIC (Acinetobacter baumannii [3]): 4 µg/mL (≈ 13.3 µM) | MIC (Acinetobacter baumannii [4]): 4 µg/mL (≈ 13.3 µM) | MIC (Acinetobacter baumannii [5]): 4 µg/mL (≈ 13.3 µM) | MIC (Acinetobacter baumannii [6]): 4 µg/mL (≈ 13.3 µM) | MIC (Acinetobacter baumannii [7]): 4 µg/mL (≈ 13.3 µM) | MIC (Acinetobacter baumannii [8]): 4 µg/mL (≈ 13.3 µM) | MIC (Acinetobacter baumannii [9]): 4 µg/mL (≈ 13.3 µM) | MIC (Acinetobacter baumannii [10]): 4 µg/mL (≈ 13.3 µM) | MIC (Acinetobacter baumannii [11]): 4 µg/mL (≈ 13.3 µM) | MIC (Acinetobacter baumannii [12]): 4 µg/mL (≈ 13.3 µM) | MIC (Acinetobacter baumannii [13]): 4 µg/mL (≈ 13.3 µM) | MIC (Acinetobacter baumannii [14]): 4 µg/mL (≈ 13.3 µM) | MIC (Acinetobacter baumannii [15]): 4 µg/mL (≈ 13.3 µM) | MIC (Acinetobacter baumannii [16]): 4 µg/mL (≈ 13.3 µM) | MIC (Acinetobacter baumannii [17]): 4 µg/mL (≈ 13.3 µM)

CN(C)c1cc(NC(=O)CNC(C)(C)C)c(O)c2c1C[C@H]1C[C@H]3[C@H](N(C)C)C(O)=C(C(N)=O)C(=O)[C@@]3(O)C(O)=C1C2=O [TIGECYCLINE]
MIC (Acinetobacter baumannii [1]): 8 µg/mL (≈ 13.7 µM) | MIC (Acinetobacter baumannii [2]): 8 µg/mL (≈ 13.7 µM) | MIC50 (Acinetobacter baumannii [18]): 2 µg/mL (≈ 3.41 µM) | MIC90 (Acinetobacter baumannii [18]): 4 µg/mL (≈ 6.83 µM) | MIC (Acinetobacter baumannii [3]): 12 µg/mL (≈ 20.5 µM) | MIC (Acinetobacter baumannii [19]): 4 µg/mL | MIC (Acinetobacter baumannii [20]): 2 µg/mL | MIC (Acinetobacter baumannii [4]): 8 µg/mL (≈ 13.7 µM) | MIC (Acinetobacter baumannii [5]): 8 µg/mL (≈ 13.7 µM) | MIC (Acinetobacter baumannii [21]): 3 µg/mL | MIC (Acinetobacter baumannii [22]): 4 µg/mL | MIC (Acinetobacter baumannii [23]): 4 µg/mL | MIC (Acinetobacter baumannii [24]): 6 µg/mL | MIC (Acinetobacter baumannii [6]): 2 µg/mL (≈ 3.41 µM) | MIC (Acinetobacter baumannii [25]): 8 µg/mL | MIC (Acinetobacter baumannii [7]): 4 µg/mL (≈ 6.83 µM) | MIC (Acinetobacter baumannii [26]): 4 µg/mL | MIC (Acinetobacter baumannii [27]): 4 µg/mL | MIC (Acinetobacter baumannii [8]): 6 µg/mL (≈ 10.2 µM) | Css (Serum): 630 ng/mL | MIC (Acinetobacter baumannii [28]): 3 µg/mL | MIC (Acinetobacter baumannii [9]): 4 µg/mL (≈ 6.83 µM) | MIC (Acinetobacter baumannii [29]): 8 µg/mL | MIC (Acinetobacter baumannii [30]): 4 µg/mL | MIC (Acinetobacter baumannii [31]): 4 µg/mL | MIC (Acinetobacter baumannii [32]): 4 µg/mL | MIC (Acinetobacter baumannii [10]): 2 µg/mL (≈ 3.41 µM) | MIC (Acinetobacter baumannii [11]): 8 µg/mL (≈ 13.7 µM) | MIC (Acinetobacter baumannii [33]): 4 µg/mL | MIC (Acinetobacter baumannii [12]): 8 µg/mL (≈ 13.7 µM) | MIC (Acinetobacter baumannii [34]): 4 µg/mL | MIC (Acinetobacter baumannii [35]): 6 µg/mL | MIC50 (Acinetobacter baumannii [36]): 16 µg/mL (≈ 27.3 µM) | MIC90 (Acinetobacter baumannii [36]): 32 µg/mL (≈ 54.6 µM) | MIC (Acinetobacter baumannii [13]): 8 µg/mL (≈ 13.7 µM) | MIC (Acinetobacter baumannii [14]): 16 µg/mL (≈ 27.3 µM) | MIC (Acinetobacter baumannii [15]): 6 µg/mL (≈ 10.2 µM) | MIC (Acinetobacter baumannii [16]): 2 µg/mL (≈ 3.41 µM) | MIC (Acinetobacter baumannii [17]): 2 µg/mL (≈ 3.41 µM)
